Laboratory results as given in article PMC3726336, “Product inhibition of cellulases studied with ^14C-labeled cellulose substrates” (Biotechnology for Biofuels, 2013).

Experiments:
CtCel7A = CtCel7A (Chaetomium thermophilum, UniProt A7WNU1); assay: Cellobiose inhibition of MUL hydrolysis by CtCel7A; type: biochemical; settings: MUL substrate (5 μM)
Excerpt: (§1) The cellobiose inhibition of GH7 CBHs is most often studied on low-Mw model substrates. However, it has been shown that the inhibition of CBHs acting on low-Mw substrates appears to be much stronger than that on cellulose substrates. The Ki values for cellobiose inhibition of GH7 CBHs measured on low-Mw substrates are in the micromolar range [44, 51, 52], whereas those measured on cellulose are in the low- to high-millimolar range [28, 31, 32]. […] Unfortunately, the inhibition of this enzyme on cellulose has not been studied. We also studied the cellobiose inhibition of GH7 CBHs acting on MUL. The initial rates of MUL hydrolysis measured in the presence and absence of added cellobiose were first analyzed according to Equation 1, and the IC50 values were found using Equation 2. […] The inhibition of MUL hydrolysis is attributable to the binding of cellobiose to the product sites (+1/+2) of TrCel7A [52]. […]
(§2) For the inhibition of enzyme acting on the low-Mw substrate, the initial rates of the hydrolysis of MUL in the presence and absence of added cellobiose were followed. […] Reactions were stopped by the addition of NH3 (final concentration 0.1 M), and the released 4-methylumbelliferone was quantified by fluorescence using excitation and emission wavelengths of 360 nm and 450 nm, respectively.

TaCel7A = TaCel7A (Thermoascus aurantiacus, UniProt A7WNU2); assay: Cellobiose inhibition of MUL hydrolysis by TaCel7A; type: biochemical; settings: MUL substrate (5 μM)
Excerpt: as §1, §2

TrCel5A = target: T1, TrCel5A (Trichoderma reesei, UniProt P07982); assay: Cellobiose inhibition of hydrolysis of 14C-amorphous cellulose by TrCel5A; type: biochemical; settings: TrCel5A (5.0 nM), 35°C, not accountable by Equation 5
T1 construct: TrCel7B, TrCel5A, and TrCel12A were purified from the culture filtrate of Tr QM 9414; made in house; host or cells: Trichoderma reesei QM 9414 culture filtrate (native producer)
Excerpt: EGs are a diverse group of enzymes present in all efficient cellulase systems. Their best recognized function is their synergism with CBHs. Depending on the conditions, the degree of synergistic effect may be more than 10-fold. Therefore, the inhibition of the EG component may result in a drastic decrease in the rate of the synergistic hydrolysis of cellulose. The main soluble product of the EG-catalyzed cellulose hydrolysis is cellobiose, but some glucose and higher-order oligosaccharides are also produced. Here, we studied the cellobiose inhibition of the EGs TrCel7B, TrCel5A and TrCel12A with ^14C-amorphous cellulose substrate. The enzyme concentrations and hydrolysis times were adjusted so that the linear region of the time course was studied. The time courses for the hydrolysis of ^14C-amorphous cellulose by TrCel7B in the presence and absence of added cellobiose are shown in Figure 9A. For the results with TrCel5A and TrCel12A, see Additional file 1: Figure S5. […] This figure is reasonably well in line with that measured for TrCel7B on amorphous cellulose using isothermal titration calorimetry. […]
EGs were assessed on ^14C-amorphous cellulose. ^14C-amorphous cellulose (0.5 g l^-1) was incubated (with shaking at 700 rpm) with EG in 50 mM sodium acetate buffer, pH 5.0, containing BSA (0.1 g l^-1) in the presence and absence of added cellobiose. […]

[1] = target: Cel7A from Trichoderma harzianum; set-up: method as in PMID 23114223; settings: hydrolysis of chloro-nitrophenyl lactoside; read-out: Ki value for cellobiose inhibition; cited from earlier work

CtCel7A, sequence (A7WNU1 entry or part of it): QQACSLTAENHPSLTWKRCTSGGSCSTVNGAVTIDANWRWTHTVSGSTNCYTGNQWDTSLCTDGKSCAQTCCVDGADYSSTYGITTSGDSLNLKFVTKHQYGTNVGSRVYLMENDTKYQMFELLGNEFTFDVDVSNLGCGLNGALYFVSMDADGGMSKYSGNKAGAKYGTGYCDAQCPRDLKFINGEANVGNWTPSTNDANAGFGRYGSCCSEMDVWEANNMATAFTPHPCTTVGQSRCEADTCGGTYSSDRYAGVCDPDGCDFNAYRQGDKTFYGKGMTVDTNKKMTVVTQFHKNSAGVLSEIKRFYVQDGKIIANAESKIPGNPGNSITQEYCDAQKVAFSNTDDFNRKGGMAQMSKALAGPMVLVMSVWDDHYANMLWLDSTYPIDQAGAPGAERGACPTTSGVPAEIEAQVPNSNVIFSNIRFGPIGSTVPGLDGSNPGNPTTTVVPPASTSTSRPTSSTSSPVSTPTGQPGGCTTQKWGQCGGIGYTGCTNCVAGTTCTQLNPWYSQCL
TaCel7A, sequence (A7WNU2 entry or part of it): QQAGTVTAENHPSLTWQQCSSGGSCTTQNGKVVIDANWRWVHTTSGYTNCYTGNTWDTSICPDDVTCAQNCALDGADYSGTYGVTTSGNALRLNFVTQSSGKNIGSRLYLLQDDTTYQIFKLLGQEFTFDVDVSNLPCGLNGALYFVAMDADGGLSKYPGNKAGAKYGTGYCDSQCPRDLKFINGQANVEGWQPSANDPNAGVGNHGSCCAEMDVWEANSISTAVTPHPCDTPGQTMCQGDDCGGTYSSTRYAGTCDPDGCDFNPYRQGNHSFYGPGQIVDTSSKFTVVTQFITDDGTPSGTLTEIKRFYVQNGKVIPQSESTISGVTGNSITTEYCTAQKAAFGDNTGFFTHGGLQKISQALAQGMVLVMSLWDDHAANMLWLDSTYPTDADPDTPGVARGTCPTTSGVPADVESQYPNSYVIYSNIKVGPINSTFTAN
T1 sequence (P07982 22-418): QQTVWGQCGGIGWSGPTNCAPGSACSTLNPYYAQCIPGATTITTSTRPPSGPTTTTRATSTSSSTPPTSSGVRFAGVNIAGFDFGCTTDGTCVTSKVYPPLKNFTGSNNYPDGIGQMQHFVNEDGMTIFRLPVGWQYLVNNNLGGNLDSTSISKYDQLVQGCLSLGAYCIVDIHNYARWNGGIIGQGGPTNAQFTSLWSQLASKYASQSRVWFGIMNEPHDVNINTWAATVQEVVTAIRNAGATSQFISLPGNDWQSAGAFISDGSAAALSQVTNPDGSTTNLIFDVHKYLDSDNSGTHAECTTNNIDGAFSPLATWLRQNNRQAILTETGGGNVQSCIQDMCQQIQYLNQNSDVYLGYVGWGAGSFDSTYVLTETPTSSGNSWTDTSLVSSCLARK

SMILES: O=C[C@H](O)[C@@H](O)[C@H](O[C@@H]1O[C@H](CO)[C@@H](O)[C@H](O)[C@H]1O)[C@H](O)CO [cellobiose, Cellobiose]
- Ki (CtCel7A; 35°C): 110 µM
- Ki (CtCel7A; 50°C): 346 µM
- Ki (TaCel7A; 35°C): 176 µM
- Ki (TaCel7A; 50°C): 355 µM
- IC50 (approximate, by visual inspection of Figure 9B) (TrCel5A): few hundred millimolar range
- Ki [1]: 7.2 mM
